Test results as given in patent publication US20140316005A1, “COMPOSITIONS FOR IMPROVED OXIDATIVE STATUS IN COMPANION ANIMALS” (HILL'S PET NUTRITION, INC., priority 2003, published 2014).
Read-outs that look alike come from different tables or passages of the source.

Details: for Total gain / Weekly gain / Final wt.: kittens; for Total gain / Weekly gain: 10 weeks post-weaning; for Final wt.: end of 10-week trial
Description: Dietary methionine was fed to growing kittens at three levels (0.77, 1.14, and 1.50%) to determine the effect of methionine on growth performance and antioxidant activity. Kittens were fed meat based, canned diets for 10 weeks post-weaning.

[1] = Week 5, dietary methionine 0.77 wt %
[2] = Week 5, dietary methionine 1.14 wt %
[3] = Week 5, dietary methionine 1.50 wt %
[4] = Week 10, dietary methionine 0.77 wt %
[5] = Week 10, dietary methionine 1.14 wt %
[6] = Week 10, dietary methionine 1.50 wt %
[7] = week 5, 1.50 wt % dietary methionine vs 0.77 wt %
[8] = week 10, 1.50 wt % dietary methionine vs 0.77 wt %

Q: What does the source list for CSCC[C@H](N)C(=O)O [methionine]?
A: Weekly weight gain, in words (1.14 wt % and 1.50 wt % dietary methionine compared to 0.77 wt %): increased; ORAC (oxygen radical absorptive capacity) [1]: 2521.84; Taurine (whole blood) [1]: 575.63; Vitamin E (serum) [1]: 15.63; ORAC (oxygen radical absorptive capacity) [2]: 2694.51; Taurine (whole blood) [2]: 630.00; Vitamin E (serum) [2]: 19.86; ORAC (oxygen radical absorptive capacity) [3]: 3164.36; Taurine (whole blood) [3]: 783.71; Vitamin E (serum) [3]: 30.19; ORAC (oxygen radical absorptive capacity) [4]: 2972.53; Taurine (whole blood) [4]: 625.75; Vitamin E (serum) [4]: 20.74; ORAC (oxygen radical absorptive capacity) [5]: 2503.38; Taurine (whole blood) [5]: 616.13; Vitamin E (serum) [5]: 24.24; ORAC (oxygen radical absorptive capacity) [6]: 3013.31; Taurine (whole blood) [6]: 784.57; Vitamin E (serum) [6]: 25.13; Total gain (dietary methionine 0.77 wt %): 950.00 g; Weekly gain (dietary methionine 0.77 wt %): 95.00 g; Final wt. (dietary methionine 0.77 wt %): 1518.75 g; Total gain (dietary methionine 1.14 wt %): 1075.00 g; Weekly gain (dietary methionine 1.14 wt %): 107.50 g; Final wt. (dietary methionine 1.14 wt %): 1612.50 g; Total gain (dietary methionine 1.50 wt %): 1221.43 g; Weekly gain (dietary methionine 1.50 wt %): 122.14 g; Final wt. (dietary methionine 1.50 wt %): 1792.86 g; Blood taurine concentrations, in words [7]: greater; Oxygen radical absorptive capacity (ORAC), in words [7]: greater; Vitamin E concentrations, in words [7]: greater; Oxygen radical absorptive capacity, in words (week 10): not increased; Serum vitamin E concentrations, in words [8]: greater; Whole blood taurine concentrations, in words [8]: greater
